Measurements from US20240336654A1, “ANTIMICROBIAL PEPTIDOMIMETICS” (SPEXIS AG, priority 2021, published 2024).
Like-named read-outs stand apart in the source and are kept apart here. Where a SMILES comes first, the peptide text is derived from it. Bridges are numbered along the chain shown (N, C = ends). Where no end group is shown, it is not given here. [ ]: non-standard residue; d: D form. The star is where a group is joined. Val(Nα-amidino) = CC(C)[C@H](NC(=N)N)C(=O)*; Hyp = O=C(O)[C@@H]1C[C@@H](O)CN1; Cit = NC(=O)NCCC[C@H](N)C(=O)O; Pen = CC(C)(S)[C@H](N)C(=O)O; dDab = NCC[C@@H](N)C(=O)O; Dab = NCC[C@H](N)C(=O)O

Columns and labels:
Format in all cases: cell-based
[1] = test system: human red blood cells (hRBC)
How it was run: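 Percent hemolysis derived from OD540 of supernatants relative to full lysis by 2.5% Triton X-100 (PBS baseline). Washed fresh human erythrocytes (20% v/v) were exposed to 200 μg/mL peptide for 1 h at 37 °C with shaking.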

[2] = test system: Escherichia coli MCR-1 Af 45
How it was run: (§1)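 CLSI broth microdilution, slightly modified: cation-adjusted Mueller-Hinton II broth with about 5×10^5 CFU/mL from a 0.5 McFarland suspension, and two-fold serial peptide dilutions with Polysorbate 80 at 0.002% final. MIC (μg/mL) was the lowest concentration with no visible growth after 18-20 hours at 35° C.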

[3] = test system: Klebsiella pneumoniae SSI3010
How it was run: as §1

[4] = test system: Escherichia coli ATCC 25922
How it was run: as §1

[5] = red cells of human, 1 h, 200 μg/mL
[6] = Mueller-Hinton broth II, no visible growth after 18-20 hours at 35° C.

Compound	Escherichia coli MCR-1 Af45 MIC ([2]; MCR-1 Af 45) [mg/L]	Klebsiella pneumoniae SSI3010 MIC ([3]; SSI3010) [mg/L]	Escherichia coli ATCC 25922 MIC ([4]; ATCC 25922) [mg/L]	Escherichia coli MCR-1 Af45 MIC [2, 6] [mg/L]	Klebsiella pneumoniae SSI3010 MIC [3, 6] [mg/L]	Escherichia coli ATCC 25922 MIC [4, 6] [mg/L]	Hemolysis at 0.2 g/L [1, 5] [%]	Hemolysis at 0.2 g/L [1] [%]
CC[C@H](C)[C@H](NC(=O)[C@@H]1C[C@@H](O)CN1C(=O)[C@@H](NC(=N)N)C(C)C)C(=O)N[C@H]1CCC(=O)NCC[C@@H](C(=O)N[C@@H](Cc2ccc(O)cc2)C(=O)O)NC(=O)[C@H](CCN)NC(=O)[C@H](CCN)NC(=O)[C@H](CCCCN)NC(=O)[C@@H](CCN)NC(=O)[C@H](CO)NC(=O)[C@H](CCN)NC(=O)[C@H](CCCNC(=N)N)NC(=O)[C@H](CC(N)=O)NC(=O)[C@H]([C@@H](C)O)NC(=O)[C@H](Cc2ccc(O)cc2)NC1=O [Example 89, Gua-Val-Hyp-Ile-Glu-Tyr-Thr-Asn-Arg-Dab-Ser-^DDab-Lys-Dab-Dab-Dab-Tyr] ({Val(Nα-amidino)}-[Hyp]IEYTNR[Dab]S[dDab]K[Dab][Dab][Dab]Y-OH; lactam 3-14)	0.125	0.125	0.125				<1	
CC[C@H](C)[C@H](NC(=O)[C@@H]1C[C@@H](O)CN1C(=O)[C@@H](N)C(C)C)C(=O)N[C@@H]1C(=O)N[C@@H](Cc2ccc(O)cc2)C(=O)N[C@@H](CO)C(=O)N[C@@H](CC(N)=O)C(=O)N[C@@H](CCCNC(=N)N)C(=O)N[C@@H](CCN)C(=O)N[C@@H]([C@@H](C)O)C(=O)N[C@H](CCN)C(=O)N[C@@H](CCCCN)C(=O)N[C@@H](C)C(=O)N[C@@H](CCN)C(=O)N[C@H](C(=O)N[C@@H](Cc2ccc(O)cc2)C(=O)O)CSSC1(C)C [Example 46, Val-Hyp-Ile-Pen-Tyr-Ser-Asn-Arg-Dab-Thr-^DDab-Lys-Ala-Dab-Cys-Tyr] (H-V[Hyp]I[Pen]YSNR[Dab]T[dDab]KA[Dab]CY-OH; disulfide 4-15)	0.25	0.5	0.5				<1	
CC[C@H](C)[C@H](NC(=O)[C@@H]1C[C@@H](O)CN1C(=O)[C@@H](NC(=N)N)C(C)C)C(=O)N[C@@H]1C(=O)N[C@@H](Cc2ccc(O)cc2)C(=O)N[C@@H]([C@@H](C)O)C(=O)N[C@@H](CC(N)=O)C(=O)N[C@@H](CCCNC(=N)N)C(=O)N[C@@H](CCN)C(=O)N[C@@H](CO)C(=O)N[C@H](CCN)C(=O)N[C@@H](CCCCN)C(=O)N[C@@H](CCN)C(=O)N[C@@H](CCN)C(=O)N[C@H](C(=O)N[C@@H](Cc2ccc(O)cc2)C(=O)O)CSSC1(C)C [Example 80, Gua-Val-Hyp-Ile-Pen-Tyr-Thr-Asn-Arg-Dab-Ser-^DDab-Lys-Dab-Dab-Cys-Tyr] ({Val(Nα-amidino)}-[Hyp]I[Pen]YTNR[Dab]S[dDab]K[Dab][Dab]CY-OH; disulfide 3-14)	0.0625	0.125	0.125				<1	
CC[C@H](C)[C@H](NC(=O)[C@@H]1C[C@@H](O)CN1C(=O)[C@@H](N)C(C)C)C(=O)N[C@@H]1C(=O)N[C@@H](Cc2ccc(O)cc2)C(=O)N[C@@H](CO)C(=O)N[C@@H](CC(N)=O)C(=O)N[C@@H](CCCNC(=N)N)C(=O)N[C@@H](CCN)C(=O)N[C@@H]([C@@H](C)O)C(=O)N[C@H](CCN)C(=O)N[C@@H](CCCCN)C(=O)N[C@@H](CCN)C(=O)N[C@@H](Cc2ccc(O)cc2)C(=O)N[C@H](C(=O)N[C@@H](Cc2ccc(O)cc2)C(=O)O)CSSC1(C)C [Example 60, Val-Hyp-Ile-Pen-Tyr-Ser-Asn-Arg-Dab-Thr-^DDab-Lys-Dab-Tyr-Cys-Tyr] (H-V[Hyp]I[Pen]YSNR[Dab]T[dDab]K[Dab]YCY-OH; disulfide 4-15)	0.25	1	0.25				<1	
CC[C@H](C)[C@@H]1NC(=O)[C@@H](CCN)NC(=O)[C@H]([C@@H](C)O)NC(=O)[C@H](CCN)NC(=O)[C@H](CCCNC(=N)N)NC(=O)[C@H](CC(N)=O)NC(=O)[C@H](CO)NC(=O)[C@H](Cc2ccc(O)cc2)NC(=O)[C@@H](NC(=O)[C@@H](NC(=O)[C@@H]2C[C@@H](O)CN2C(=O)[C@@H](N)C(C)C)[C@@H](C)CC)C(C)(C)SSC[C@@H](C(=O)N[C@@H](Cc2ccc(O)cc2)C(=O)O)NC(=O)[C@H](CCN)NC(=O)[C@H](CCN)NC1=O [Example 42, Val-Hyp-Ile-Pen-Tyr-Ser-Asn-Arg-Dab-Thr-^DDab-Ile-Dab-Dab-Cys-Tyr] (H-V[Hyp]I[Pen]YSNR[Dab]T[dDab]I[Dab][Dab]CY-OH; disulfide 4-15)	0.125	0.25	0.125				<1	

Second part, led by results:

Escherichia coli MCR-1 Af45 MIC ([2]; MCR-1 Af 45) [mg/L]	Klebsiella pneumoniae SSI3010 MIC ([3]; SSI3010) [mg/L]	Escherichia coli ATCC 25922 MIC ([4]; ATCC 25922) [mg/L]	Escherichia coli MCR-1 Af45 MIC [2, 6] [mg/L]	Klebsiella pneumoniae SSI3010 MIC [3, 6] [mg/L]	Escherichia coli ATCC 25922 MIC [4, 6] [mg/L]	Compound	Hemolysis at 0.2 g/L [1, 5] [%]	Hemolysis at 0.2 g/L [1] [%]
0.25	0.25	0.25				CC[C@H](C)[C@H](NC(=O)[C@@H]1C[C@@H](O)CN1C(=O)[C@@H](NC(=N)N)C(C)C)C(=O)N[C@@H]1C(=O)N[C@@H](Cc2ccc(O)cc2)C(=O)N[C@@H](CO)C(=O)N[C@@H](CC(N)=O)C(=O)N[C@@H](CCCNC(=N)N)C(=O)N[C@H](CCN)C(=O)N[C@@H]([C@@H](C)O)C(=O)N[C@H](CCN)C(=O)N[C@@H](CO)C(=O)N[C@@H](CCN)C(=O)N[C@@H](CCN)C(=O)N[C@H](C(=O)N[C@@H](Cc2ccc(O)cc2)C(=O)O)CSSC1(C)C [Example 104, Gua-Val-Hyp-Ile-Pen-Tyr-Ser-Asn-Arg-^DDab-Thr-^DDab-Ser-Dab-Dab-Cys-Tyr] ({Val(Nα-amidino)}-[Hyp]I[Pen]YSNR[dDab]T[dDab]S[Dab][Dab]CY-OH; disulfide 3-14)	<1	
			0.25	0.5	0.25	Val-Hyp-Ile-Pen-Tyr-Ser-Asn-Arg-Dab-Thr-^DDab-Lys-Dab-Ser-Cys-Tyr (V[Hyp]I[Pen]YSNR[Dab]T[dDab]K[Dab]SCY; disulfide 4-15) [Example 57]		<1
0.125	0.25	0.25				CC[C@H](C)[C@H](NC(=O)[C@@H]1C[C@@H](O)CN1C(=O)[C@@H](NC(=N)N)C(C)C)C(=O)N[C@@H]1C(=O)N[C@@H](Cc2ccc(O)cc2)C(=O)N[C@@H](CO)C(=O)N[C@@H](CC(N)=O)C(=O)N[C@@H](CCCNC(=N)N)C(=O)N[C@@H](CCN)C(=O)N[C@@H](CC(N)=O)C(=O)N[C@H](CCN)C(=O)N[C@@H](CCCCN)C(=O)N[C@@H](CCN)C(=O)N[C@@H](CCN)C(=O)N[C@H](C(=O)N[C@@H](Cc2ccc(O)cc2)C(=O)O)CSSC1(C)C [Example 94, Gua-Val-Hyp-Ile-Pen-Tyr-Ser-Asn-Arg-Dab-Asn-^DDab-Lys-Dab-Dab-Cys-Tyr] ({Val(Nα-amidino)}-[Hyp]I[Pen]YSNR[Dab]N[dDab]K[Dab][Dab]CY-OH; disulfide 3-14)	<1	
0.125	0.25	0.25				CC[C@H](C)[C@H](NC(=O)[C@@H]1C[C@@H](O)CN1C(=O)[C@@H](NC(=N)N)C(C)C)C(=O)N[C@@H]1C(=O)N[C@@H](Cc2ccc(O)cc2)C(=O)N[C@@H](CO)C(=O)N[C@@H](CC(N)=O)C(=O)N[C@@H](CCCNC(=N)N)C(=O)N[C@@H](CCN)C(=O)N[C@@H]([C@@H](C)O)C(=O)N[C@H](CCN)C(=O)N[C@@H](CO)C(=O)N[C@@H](CCN)C(=O)N[C@@H](CCN)C(=O)N[C@H](C(=O)N[C@@H](Cc2ccc(O)cc2)C(=O)O)CSSC1(C)C [Example 99, Gua-Val-Hyp-Ile-Pen-Tyr-Ser-Asn-Arg-Dab-Thr-^DDab-Ser-Dab-Dab-Cys-Tyr] ({Val(Nα-amidino)}-[Hyp]I[Pen]YSNR[Dab]T[dDab]S[Dab][Dab]CY-OH; disulfide 3-14)	<1	
0.125	0.25	0.125				CC[C@H](C)[C@H](NC(=O)[C@@H]1C[C@@H](O)CN1C(=O)[C@@H](NC(=N)N)C(C)C)C(=O)N[C@@H]1C(=O)N[C@@H](Cc2ccc(O)cc2)C(=O)N[C@@H]([C@@H](C)O)C(=O)N[C@@H](CC(N)=O)C(=O)N[C@@H](CCCNC(=N)N)C(=O)N[C@@H](CCN)C(=O)N[C@@H]([C@@H](C)O)C(=O)N[C@H](CCN)C(=O)N[C@@H](CCCNC(N)=O)C(=O)N[C@@H](CCN)C(=O)N[C@@H](CCN)C(=O)N[C@H](C(=O)N[C@@H](Cc2ccc(O)cc2)C(=O)O)CSSC1(C)C [Example 97, Gua-Val-Hyp-Ile-Pen-Tyr-Thr-Asn-Arg-Dab-Thr-^DDab-Cit-Dab-Dab-Cys-Tyr] ({Val(Nα-amidino)}-[Hyp]I[Pen]YTNR[Dab]T[dDab][Cit][Dab][Dab]CY-OH; disulfide 3-14)	<1	
